According to ChEMBL document CHEMBL1201862, “PubChem BioAssay data set” (2004):
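Following 48 hours of exposure in 96-well plates, responses at five concentrations were used to interpolate endpoints linearly. Here, GI50 denotes the concentration required for 50% inhibition of growth.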 The source made the active and inactive calls. No stated cut-off is given here; in the data, active = GI50 up to about 1.1 µM and inactive = higher.

What was measured:
Assay in all cases: NCI-60 cell line screen, 48 h
K562 = test system: K562
SF-295 = test system: SF-295
XF498 = test system: XF498
CCRF-CEM = test system: CCRF-CEM
TK-10 = test system: TK-10
COLO 205 = test system: COLO 205
NCI-H460 = test system: NCI-H460
M14 = test system: M14
SF-268 = test system: SF-268
SNB-75 = test system: SNB-75
UO-31 = test system: UO-31
UACC-62 = test system: UACC-62
HL-60 = test system: HL-60
SK-MEL-28 = test system: SK-MEL-28
KM12 = test system: KM12
NCI-H522 = test system: NCI-H522
MOLT-4 = test system: MOLT-4
SK-MEL-2 = test system: SK-MEL-2
SN12C = test system: SN12C
NCI-H23 = test system: NCI-H23
SK-MEL-5 = test system: SK-MEL-5
OVCAR-5 = test system: OVCAR-5
SW-620 = test system: SW-620
UACC-257 = test system: UACC-257
SR = test system: SR
KM-20L2 = test system: KM-20L2
U-251 = test system: U-251
IGROV-1 = test system: IGROV-1
LXFL 529 = test system: LXFL 529
HOP-62 = test system: HOP-62
A549 = test system: A549
RPMI-8226 = test system: RPMI-8226
EKVX = test system: EKVX
SF-539 = test system: SF-539
DLD-1 = test system: DLD-1
RXF 393 = test system: RXF 393
HCT-116 = test system: HCT-116
Malme-3M = test system: Malme-3M
OVCAR-8 = test system: OVCAR-8
HT-29 = test system: HT-29
OVCAR-3 = test system: OVCAR-3
SNB-19 = test system: SNB-19
SK-OV-3 = test system: SK-OV-3
HOP-92 = test system: HOP-92
M19-MEL = test system: M19-MEL
OVCAR-4 = test system: OVCAR-4
LOX IMVI = test system: LOX IMVI
DMS-114 = test system: DMS-114
SNB-78 = test system: SNB-78
ACHN = test system: ACHN
DMS-273 = test system: DMS-273
HCT-15 = test system: HCT-15
NCI-H226 = test system: NCI-H226
CAKI-1 = test system: CAKI-1
HCC 2998 = test system: HCC 2998
786-0 = test system: 786-0
A498 = test system: A498

Measured: GI50

O=C1C(Cl)N(c2c(Cl)cccc2Cl)C1c1c[nH]c2ccccc12 (configuration not stated)
inactive: K562 > 100 µM | SF-295 > 100 µM | XF498 > 100 µM | CCRF-CEM > 100 µM | TK-10 > 100 µM | COLO 205 > 100 µM | NCI-H460 > 100 µM | M14 > 100 µM | SF-268 > 100 µM | SNB-75 > 100 µM | UO-31 > 100 µM | UACC-62 > 100 µM | HL-60 > 100 µM | SK-MEL-28 > 100 µM | KM12 > 100 µM | NCI-H522 > 100 µM | MOLT-4 > 100 µM | SK-MEL-2 > 100 µM | SN12C > 100 µM | NCI-H23 > 100 µM | SK-MEL-5 > 100 µM | OVCAR-5 > 100 µM | SW-620 > 100 µM | UACC-257 > 100 µM | SR > 100 µM | KM-20L2 > 100 µM | U-251 > 100 µM | IGROV-1 > 100 µM | LXFL 529 > 100 µM | HOP-62 > 100 µM | A549 > 100 µM | RPMI-8226 > 100 µM | EKVX > 100 µM | SF-539 > 100 µM | DLD-1 > 100 µM | RXF 393 > 100 µM | HCT-116 > 100 µM | Malme-3M 36.3 µM | OVCAR-8 > 100 µM | HT-29 > 100 µM | OVCAR-3 > 100 µM | SNB-19 > 100 µM | SK-OV-3 > 100 µM | HOP-92 > 100 µM | M19-MEL > 100 µM | OVCAR-4 > 100 µM

Cc1cc(-c2ccc(/N=N/c3ccc4c(S(=O)(=O)O)cc(S(=O)(=O)O)c(N)c4c3O)c(C)c2)ccc1/N=N/c1ccc2c(S(=O)(=O)O)cc(S(=O)(=O)O)c(N)c2c1O
inactive: XF498 > 100 µM | CCRF-CEM > 100 µM | COLO 205 > 100 µM | LOX IMVI > 100 µM | SNB-75 > 100 µM | UACC-62 > 100 µM | KM12 > 100 µM | MOLT-4 > 100 µM | DMS-114 > 100 µM | SK-MEL-5 > 100 µM | IGROV-1 > 100 µM | SNB-78 > 100 µM | HOP-62 > 100 µM | RPMI-8226 > 100 µM | DLD-1 > 100 µM | HCT-116 > 100 µM | Malme-3M > 100 µM | SNB-19 > 100 µM | HOP-92 > 100 µM | OVCAR-4 > 63.4 µM

CCCCCCCCCCCCCCCCNCCCN(C)CCCN
17.2 µM: HCT-15
inactive: K562 20 µM | SF-295 17.9 µM | TK-10 15 µM | COLO 205 22.1 µM | ACHN 19.4 µM | NCI-H460 17.7 µM | LOX IMVI 19.9 µM | M14 17.1 µM | DMS-273 17.8 µM | SF-268 18.7 µM | SNB-75 18.2 µM | UO-31 17.3 µM | UACC-62 17.3 µM | HL-60 18.6 µM | SK-MEL-28 13.4 µM | KM12 18.4 µM | NCI-H522 17.3 µM | MOLT-4 28.8 µM | NCI-H226 19.8 µM | DMS-114 16.6 µM | SK-MEL-2 20.8 µM | SN12C 20 µM | NCI-H23 18.9 µM | SK-MEL-5 16 µM | OVCAR-5 16.4 µM | CAKI-1 18.1 µM | SW-620 18.5 µM | UACC-257 22 µM | SR 21 µM | KM-20L2 18.2 µM | U-251 17.3 µM | IGROV-1 20.3 µM | LXFL 529 18.6 µM | SNB-78 16.9 µM | A549 16.7 µM | RPMI-8226 20.2 µM | EKVX 20.5 µM | SF-539 17.8 µM | DLD-1 16.8 µM | HCT-116 18.7 µM | OVCAR-8 20.7 µM | HT-29 19.3 µM | OVCAR-3 19.5 µM | HCC 2998 18.3 µM | SNB-19 17.1 µM | 786-0 15.2 µM | SK-OV-3 17.3 µM | A498 18.2 µM | M19-MEL 19.9 µM | OVCAR-4 18.8 µM
